# Test results as given in ChEMBL document CHEMBL3351802, “Rupestonic acids B-G, NO inhibitory sesquiterpenoids from Artemisia rupestris” (Bioorg Med Chem Lett, 2014).
# Columns and labels:
# [1] = Cytotoxicity against LPS-stimulated […] cells assessed as cell viability at 40 uM by MTT assay; assay type: cell-based, BV-2; conditions: read-out: Activity
# BV-2 = experiment: Inhibition of LPS-stimulated NO production in […] cells after 24 hrs by Griess assay; assay type: functional, cell-based; conditions: Mus musculus, BV-2, 24 h
IC50 (BV-2) [µM],SMILES,viability at 40 µM [1] [%]
28.9,C=C(C(=O)O)[C@@H]1CC[C@H](C)[C@@]2(O)CC(=O)C(C)=C2C1,83.4
2.6,C=C(C(=O)O)[C@@H]1CC[C@H](C)[C@@H]2CC[C@](C)(O)[C@@]2(O)C1,78.8
8.9,CC1=C2C[C@H](C(=O)O)CC[C@H](C)[C@@H]2CC1=O,77.6
24.7,C=C(C(=O)O)[C@@H]1CC[C@H](C)C2=C(C1)[C@](C)(O)CC2=O,77
20.4,C=C(C(=O)O)[C@@H]1CC[C@H](C)[C@H]2C(=O)C=C(C)[C@]2(O)C1,76.1
2.2,C=C(C(=O)O)[C@@H]1CC[C@H](C)[C@H](CCC(C)=O)C(=O)C1,76.6

SMILES,IC50 (BV-2) [µM],viability at 40 µM [1] [%]
O=c1c(O)c(-c2ccc(O)c(O)c2)oc2cc(O)cc(O)c12 [QUERCETIN],4.3,97
